Source: article PMC7527709 (Redox Biology, 2020)

Columns and labels:
Kv1.3 [1] = molecular target: T1, Kv1.3 (Homo sapiens, UniProt P22001); experiment: whole-cell patch clamp, Kv1.[…] stably expressed in CHO cells; assay type: cell-based
Kv1.3 [2] = molecular target: T1, Kv1.3; experiment: whole-cell patch clamp of Kv1.[…] current in Jurkat lymphocytes, […] compound; assay type: cell-based; conditions: read-out: % inhibition at 1 μM

T1 sequence (P22001 whole entry): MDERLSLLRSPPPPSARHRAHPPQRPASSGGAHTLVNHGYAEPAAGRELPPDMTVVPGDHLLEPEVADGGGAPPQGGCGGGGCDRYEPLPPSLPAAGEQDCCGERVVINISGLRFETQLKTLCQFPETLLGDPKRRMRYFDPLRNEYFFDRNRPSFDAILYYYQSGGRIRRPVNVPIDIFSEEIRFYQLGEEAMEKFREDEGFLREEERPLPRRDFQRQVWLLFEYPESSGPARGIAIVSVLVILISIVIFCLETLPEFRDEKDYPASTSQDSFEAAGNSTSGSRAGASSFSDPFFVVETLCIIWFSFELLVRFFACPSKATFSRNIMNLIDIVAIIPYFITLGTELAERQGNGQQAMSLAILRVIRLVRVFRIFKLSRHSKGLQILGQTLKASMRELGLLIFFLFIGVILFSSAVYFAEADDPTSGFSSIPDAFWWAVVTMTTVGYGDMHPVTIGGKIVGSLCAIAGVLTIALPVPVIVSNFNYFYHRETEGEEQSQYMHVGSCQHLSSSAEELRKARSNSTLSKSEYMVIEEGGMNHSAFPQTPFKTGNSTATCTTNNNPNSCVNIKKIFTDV

inhibition at 1 µM (Kv1.3 [2]) | Compound | EC50 (Kv1.3 [1])
 | COCCOCCOCCOCCOCCOCCOc1ccc(OCCCCOc2c3ccoc3cc3oc(=O)ccc23)cc1 [PAP-1-MHEG, 4-(4-(4-(2,5,8,11,14,17-hexaoxanonadecan-19-yloxy)phenoxy)butoxy)-7H-furo[3,2-g]chromen-7-one] | 350 ± 30 nM
~70% | CCCCCOc1ccc(OCCOCCOCCOCCOCCOCCOC)cc1 [POP-MHEG, 19-(4-(pentyloxy)phenoxy)-2,5,8,11,14,17-hexaoxanonadecane] | 
